Data on eight molecules can be found in ChEMBL document CHEMBL6078687 (J Med Chem, 2024).

For the experiment, the system named is Influenza A virus. Kind of experiment: Antiviral activity against oseltamivir-resistant Influenza A virus A/H1N1/pdm09 infected in MDCK cells assessed as inhibition of plaque formation measured after 2 days. The following applies: 48 h.
For orientation: EC50 means the concentration giving half of the maximal effect. Consider `CCC(CC)O[C@@H]1C=C(C(=O)O)C[C@H](NCc2ccc(OCc3cccc(B(O)O)c3)cc2F)[C@H]1NC(C)=O`, for which the EC50 is 0.17 µM. In the case of `CCC(CC)O[C@@H]1C=C(C(=O)O)C[C@H](NCc2ccc(OCc3cccc(B(O)O)c3)cc2C)[C@H]1NC(C)=O`, the EC50 is 0.03 µM.

As for `CCC(CC)O[C@@H]1C=C(C(=O)O)C[C@H](NCc2ccc(OCc3ccc(B(O)O)cc3)cc2Cl)[C@H]1NC(C)=O`, the EC50 is 0.4 µM. As for `CCC(CC)O[C@@H]1C=C(C(=O)O)C[C@H](NCc2ccc(OCc3ccc(B(O)O)cc3)cc2F)[C@H]1NC(C)=O`, the EC50 was 0.58 µM.

For `CCC(CC)O[C@@H]1C=C(C(=O)O)C[C@H](NCc2c(C)cc(OCc3cccc(B(O)O)c3)cc2C)[C@H]1NC(C)=O`, the EC50 is 0.15 µM.

Turning to `CCC(CC)O[C@@H]1C=C(C(=O)O)C[C@H](NCc2ccc(OCc3ccc(B(O)O)cc3)cc2C)[C@H]1NC(C)=O`, the concentration for a half-maximal effect (EC50) was found to be 0.04 µM. In the case of `CCC(CC)O[C@@H]1C=C(C(=O)O)C[C@H](NCc2ccc(OCc3cccc(B(O)O)c3)cc2Cl)[C@H]1NC(C)=O`, the EC50 was determined as 0.03 µM.

On to `CCC(CC)O[C@@H]1C=C(C(=O)O)C[C@H](N)[C@H]1NC(C)=O` [OSELTAMIVIR CARBOXYLATE], for which the EC50 is over 20 µM.
